The values that follow come from patent publication US8569302B2, “Inhibitors of flaviviridae viruses” (Gilead Sciences, Inc., priority 2009, dated 2013).

The structures appear in SMILES notation.

The test deals with human hepatoma Huh-7 cell line harboring a HCV replicon. Briefly: HCV replicon assay (inhibition of viral replication, luciferase readout). It is filed as cell-based. Conditions: Hepatitis C virus, 72 h, Huh-7 HCV replicon cells, 3 days incubation. Here is the method: The anti-HCV activity of the compounds of this invention was tested in a human hepatoma Huh-7 cell line harboring a HCV replicon. The assay comprised the following steps:
Step 1: Compound Preparation and Serial Dilution.
Serial dilution was performed in 100% DMSO in a 384-well plate. A solution containing a compound at 225-fold concentration of the starting final serial dilution concentration was prepared in 100% DMSO and 15 μL added to the pre-specified wells in column 3 or 13 of a polypropylene 384-well plate. The rest of the 384-well plate was filled with 10 μL 100% DMSO except for columns 23 and 24, where 10 μL of 500 μM a HCV protease inhibitor (ITMN-191) in 100% DMSO was added. The HCV protease inhibitor was used a control of 100% inhibition of HCV replication. The plate was then placed on a Biomek FX Workstation to start the serial dilution. The serial dilution was performed for ten cycles of 3-fold dilution from column 3 to 12 or from column 13 to 22.
Step 2: Cell Culture Plate Preparation and Compound Addition
To each well of a black polypropylene 384-well plate, 90 μL of cell media containing 1600 suspended Huh-7 HCV replicon cells was added with a Biotek uFlow Workstation. A volume of 0.4 μL of the compound solution was transferred from the serial dilution plate to the cell culture plate on a Biomek FX Workstation. The DMSO concentration in the final assay condition was 0.44%. The plates were incubated for 3 days at 37° C. with 5% CO2 and 85% humidity.
Step 3: Detection of Cytotoxicity and Inhibition of Viral Replication
a) Assessment of cytotoxicity: The media in the 384-well cell culture plate was aspirated with a Biotek EL405 plate-washer. A volume of 50 μL of a solution containing 400 nM Calcein AM in 100% PBS was added to each well of the plate with a Biotek uFlow Workstation. The plate was incubated for 30 minutes at room temperature before the fluorescence signal ([…]) was measured with a Perkin Elmer Envision Plate Reader.
b) Assessment of inhibition of viral replication: The calcein-PBS solution in the 384-well cell culture plate was aspirated with a Biotek EL405 plate-washer. A volume of 20 μL of Dual-Glo luciferase buffer (Promega, Dual-Glo Luciferase Assay Reagent, cat. #E298B) was added to each well of the plate with a Biotek uFlow Workstation. The plate was incubated for 10 minutes at room temperature. A volume of 20 μL of a solution containing 1:100 mixture of Dual-Glo Stop & Glo substrate (Promega, Dual-Glo Luciferase Assay Reagent, cat. #E313B) and Dual-Glo Stop & Glo buffer (Promega, Dual-Glo Luciferase Assay Reagent, cat. #E314B) was then added to each well of the plate with a Biotek uFlow Workstation. The plate was incubated at room temperature for 10 minutes before the luminescence signal was measured with a Perkin Elmer Envision Plate Reader.
The percent cytotoxicity was determined by calcein AM conversion to fluorescent product. The average fluorescent signal from the DMSO control wells was defined as 100% nontoxic. The individual fluorescent signal from testing compound treated well was divided by the average signal from DMSO control wells and then multiplied by 100% to get the percent viability. The percent anti-HCV replication activity was determined by the luminescence signal from the testing well compared to DMSO control wells. The background signal was determined by the average luminescence signal from the HCV protease inhibitor treated wells and was subtracted from the signal from the testing wells as well as the DMSO control wells. Following 3-fold serial dilutions, the EC50 and CC50 values were calculated by fitting % inhibition at each concentration to the following equation: % inhibition=100%/[EC50/[I])^b+1]
Where b is Hill's coefficient. See, for reference, Hill, A. V., The Possible Effects of the Aggregation of the Molecules of Hæmoglobin on its Dissociation Curves, J. Physiol. 40: iv-vii. (1910). […]
`CC(C)(C)C#Cc1cc(N(C(=O)[C@H]2CC[C@H](C)CC2)[C@H]2CCN(S(=O)(=O)c3cnc(=O)[nH]c3)C2)c(C(=O)O)s1` [Compound 214, 5-(3,3-Dimethyl-but-1-ynyl)-3-{(4-methyl-cyclohexanecarbonyl)-[1-(2-oxo-1,2-dihydro-pyrimidine-5-sulfonyl)-pyrrolidin-3-yl]-amino}-thiophene-2-carboxylic acid]: testing at 2 µM gave an inhibition of 69.9%.
As to `CC1=CCC(C(=O)N(c2cc(C#CC(C)(C)C)sc2C(=O)O)[C@H]2CC[C@H](O[C@H]3CCOC3)CC2)[C@H](C)C1` (single isomer, unassigned) [Compound 303], 2 µM produced 99.9% inhibition.
The figure for `Cn1nnnc1S[C@H]1CC[C@H](N(c2cc(C#CC(C)(C)C)sc2C(=O)O)C(=O)[C@H]2CC[C@H](C)CC2)CC1` [Compound 101, 5-(3,3-Dimethylbut-1-ynyl)-3-(4-methyl-N-(4-(1-methyl-1H-tetrazol-5-ylthio)cyclohexyl)cyclohexanecarboxamido)thiophene-2-carboxylic acid] is 100%.
The figure for `Cn1nc(O[C@H]2CC[C@H](N(c3cc(C#CC(C)(C)C)sc3C(=O)O)C(=O)[C@H]3CC[C@H](C)CC3)CC2)ccc1=O` [Compound 174, 5-(3,3-Dimethylbut-1-ynyl)-3-(4-methyl-N-(4-(1-methyl-6-oxo-1,6-dihydropyridazin-3-yloxy)cyclohexyl)cyclohexanecarboxamido)thiophene-2-carboxylic acid] is 100%; for `CC1=CCC(C(=O)N(c2cc(C#CC(C)(C)C)sc2C(=O)O)[C@H]2CC[C@H](O[C@@H]3CCOC3)CC2)[C@H](C)C1` (single isomer, unassigned) [Compound 305, 5-(3,3-dimethyl-but-1-ynyl)-3-{(4,6R-dimethyl-cyclohex-3-enecarbonyl)-[4-(tetrahydro-furan-3R-yloxy)-trans-cyclohexyl]-amino}-thiophene-2-carboxylic acid] it is 100%.
To `C[C@H]1CC[C@H](C(=O)N(c2cc(C#CC3CC3)sc2C(=O)O)[C@H]2CC[C@H](Oc3ccccn3)CC2)CC1` [Compound 229, 5-(2-cyclopropylethynyl)-3-(4-methyl-N-(4-(pyridin-2-yloxy)cyclohexyl)cyclohexanecarboxamido)thiophene-2-carboxylic acid] belongs 82.6%; to `CC1CCC(C(=O)N(c2cc(C#CC(C)(C)C)sc2C(=O)O)[C@H]2CC[C@H](Oc3cncc(CN(C)C)c3)CC2)CC1` (stereo partly shown) [Compound 192, 3-[[-4-(5-dimethylaminomethyl-pyridin-3-yloxy)-cyclohexyl]-(4-methyl-cyclohexanecarbonyl)-amino]-5-(3,3-dimethyl-but-1-ynyl)-thiophene-2-carboxylic acid], 100%; to `CC(C)(C)C#Cc1cc(N(C(=O)[C@H]2CC[C@H](C)CC2)[C@H]2CC[C@H](Sc3cccc[n+]3[O-])CC2)c(C(=O)O)s1` [Compound 88], 98.5%.
As to `CC(C)(C)C#Cc1cc(N(C(=O)[C@H]2CC[C@H](C)CC2)C2CCC(Oc3nc(CN4CCCC4)cs3)CC2)c(C(=O)O)s1` (stereo partly shown) [Compound 155, 5-(3,3-Dimethylbut-1-ynyl)-3-(4-methyl-N-(4-(4-(pyrrolidin-1-ylmethyl)thiazol-2-yloxy)cyclohexyl)cyclohexanecarboxamido)thiophene-2-carboxylic acid], testing at 2 µM gave an inhibition of 100%.
The figure for `CC(C)(C)C#Cc1cc(N(C(=O)[C@H]2CC[C@H](C)CC2)[C@H]2CC[C@H](Oc3cnc(Cl)cn3)CC2)c(C(=O)O)s1` [Compound 184, 3-(N-(4-(5-Chloropyrazin-2-yloxy)cyclohexyl)-4-methylcyclohexanecarboxamido)-5-(3,3-dimethylbut-1-ynyl)thiophene-2-carboxylic acid] is 97.8%; for `CC1CCC(C(=O)N(c2cc(C#CC(C)(C)C)sc2C(=O)O)[C@H]2CC[C@H](Oc3ccnc4ccccc34)CC2)CC1` (stereo partly shown) [Compound 25, 5-(3,3-Dimethyl-but-1-ynyl)-3-{(4-methyl-cyclohexanecarbonyl)-[4-(quinolin-4-yloxy)-cyclohexyl]-amino}-thiophene-2-carboxylic acid] it is 99.3%.
To `CC(C)(C)C#Cc1cc(N(C(=O)[C@H]2CC[C@H](C)CC2)[C@H]2CC[C@H](OC3CCOC3)CC2)c(C(=O)O)s1` (stereo partly shown) [Compound 224, 5-(3,3-dimethylbut-1-ynyl)-3-(4-methyl-N-(4-(tetrahydrofuran-3-yloxy)cyclohexyl)cyclohexanecarboxamido)thiophene-2-carboxylic acid] belongs 99.9%; to `CC(C)(C)C#Cc1cc(N(C(=O)[C@H]2CC[C@H](C)CC2)[C@H]2CC[C@H](Oc3ccc(C#N)cn3)CC2)c(C(=O)O)s1` [Compound 9, 3-[[trans-4-(5-Cyano-pyridin-2-yloxy)-cyclohexyl]-(trans-4-methyl-cyclohexanecarbonyl)-amino]-5-(3,3-dimethyl-but-1-ynyl)-thiophene-2-carboxylic acid], 99.3%.
Regarding `CC(C)(C)C#Cc1cc(N(C(=O)[C@H]2CC[C@H](C)CC2)[C@H]2CC[C@H](Oc3cc(C(=O)N4CCCC4)ccn3)CC2)c(C(=O)O)s1` [Compound 166, Sodium 5-(3,3-dimethylbut-1-ynyl)-3-(4-methyl-N-(4-(4-(pyrrolidine-1-carbonyl)pyridin-2-yloxy)cyclohexyl)cyclohexanecarboxamido)thiophene-2-carboxylate], the inhibition (usually how much of the control response was suppressed) at 2 µM amounted to 99.9%.
To `CC(C)(C)C#Cc1cc(N(C(=O)[C@H]2CC[C@H](C)CC2)[C@H]2CC[C@@H](Oc3cncnc3)CC2)c(C(=O)O)s1` [Compound 179, 5-(3,3-Dimethylbut-1-ynyl)-3-(4-methyl-N-(4-(pyrimidin-5-yloxy)cyclohexyl)cyclohexanecarboxamido)thiophene-2-carboxylic acid] belongs 99.5%.
The figure for `CC1CCC(C(=O)N(c2cc(C#CC(C)(C)C)sc2C(=O)O)[C@H]2CC[C@H](Oc3cncc(CN4CCOCC4)c3)CC2)CC1` (stereo partly shown) [Compound 194, 3-[[4-(5-morpholin-4-ylmethyl-pyridin-3-yloxy)-cyclohexyl]-(4-methyl-cyclohexanecarbonyl)-amino]-5-(3,3-dimethyl-but-1-ynyl)-thiophene-2-carboxylic acid] is 99.9%; for `CC(C)(C)C#Cc1cc(N(C(=O)[C@H]2CC[C@H](C)CC2)[C@H]2CC[C@H](Oc3cnccn3)CC2)c(C(=O)O)s1` [Compound 2, 5-(3,3-Dimethyl-but-1-ynyl)-3-{(trans-4-methyl-cyclohexanecarbonyl)-[trans-4-(pyrazin-2-yloxy)-cyclohexyl]-amino}-thiophene-2-carboxylic acid] it is 99.6%.
The figure for `Cc1nnc(S[C@H]2CC[C@H](N(c3cc(C#CC(C)(C)C)sc3C(=O)O)C(=O)[C@H]3CC[C@H](C)CC3)CC2)o1` [Compound 98, 5-(3,3-Dimethylbut-1-ynyl)-3-(4-methyl-N-(4-(5-methyl-1,3,4-oxadiazol-2-ylthio)cyclohexyl)cyclohexanecarboxamido)thiophene-2-carboxylic acid] is 100%.
The compound `CN(C)c1nc(O[C@H]2CC[C@H](N(c3cc(C#CC(C)(C)C)sc3C(=O)O)C(=O)[C@H]3CC[C@H](C)CC3)CC2)ncc1F` [Compound 151, 3-(N-(4-(4-(Dimethylamino)-5-fluoropyrimidin-2-yloxy)cyclohexyl)-4-methylcyclohexanecarboxamido)-5-(3,3-dimethylbut-1-ynyl)thiophene-2-carboxylic acid] gave an inhibition at 2 µM of 99.4%.
